Reference: patent publication US6582961B1, “Methods of protecting plants from pathogens” (priority 1998, dated 2003)

Legend:
Type in all cases: in vivo, Phaseolus vulgaris
[1] = system: PR-1a gene RNA expression; experiment: Northern blot of PR-1a RNA in sprayed red kidney bean plants
Procedure: FIG. 1 is a northern blot of RNA probed for expression of PR-1a protein. RNA was extracted from 14 day-old red kidney bean plants 24 hours after leaves of the plants were sprayed until wet with one of five treatments. Lane 1: treatment with 3,500 ppm of peracetic acid (“PAA”). Lane 2: treatment with 10,000 ppm of PAA. Lane 3: treatment with 3,500 ppm of PAA plus 200 ppm of salicylic acid/humic acid mixture (see Example 1; hereafter “inducer mixture”). Lane 4: treatment with 10,000 ppm of PAA and 200 ppm of inducer mixture. Lane 5: treatment with 200 ppm inducer mixture, without PAA.
Fourteen-day old red kidney bean plants (Phaseolus vulgaris) were sprayed from an overhead boom until the leaves were wet and spray began to run off them. […]
The plants were then left for 24 hours, after which the leaves were subjected to extraction of their total RNA by the procedure described in Logemann, J., et al, “Improved method for the isolation of RNA from plant tissues.” Anal Biochem. 163:16-20 (1987). […] Hybridization was observed and analyzed by chemiluminescent detection of the bound probes using the “Genius System,” (Boehringer Mannheim Corporation, Indianapolis, Ind.), following the manufacturer's directions. […]

[2] = system: phenylalanine ammonia lyase (PAL) mRNA; experiment: Northern blot of phenylalanine ammonia lyase (PAL) mRNA in sprayed bean plants
Procedure: FIG. 2 is a northern blot of RNA probed for expression of phenylalanine ammonia lyase (“PAL”). RNA was extracted from 14 day-old red kidney bean plants 24 hours after leaves of the plants were sprayed until wet with one of four treatments. Lane 1: water-only control. Lane 2: treatment with 3,500 ppm of PAA. Lane 3: treatment with 10,000 ppm of PAA. Lane 4: treatment with 3,500 ppm of PAA plus 200 ppm of inducer mixture.
Bean plants were grown and treated in the same manner as in the previous Example, except that a water-only control was run, but not a test of systemic inducer without PAA. Total RNA was extracted and gels were loaded, run, and analyzed following the procedures discussed in previous Example, with the exception that no lane was run containing RNA from plants sprayed with a systemic inducer without an ROS present. Probe for PAL mRNA transcripts was prepared following the procedures set forth in Blee, K. A., and Anderson, A. J. “Defense-related transcript accumulation in Phaseolus vulgaris L. colonized by the arbuscular mycorrhizal fungus Glomus intraradices Schenck & Smith.” Plant Physiol. 110: 675-688 (1996).

[3] = system: hydroxyproline-rich glycoprotein (HYP) RNA; experiment: Northern blot of hydroxyproline-rich glycoprotein (HYP) RNA in sprayed bean plants
Procedure: FIG. 3 is a northern blot of RNA probed for expression of hydroxyproline-rich glycoproteins (“HPRG” or “HYP”). RNA was extracted from 14 day-old red kidney bean plants 24 hours after leaves of the plants were sprayed until wet with one of five treatments. Lane 1: water-only control. Lane 2: treatment with 3,500 ppm of PAA. Lane 3: treatment with 10,000 ppm of PAA. Lane 4: treatment with 3,500 ppm of PAA plus 200 ppm of inducer mixture. Lane 5: treatment with 10,000 ppm of PAA plus 200 ppm of inducer mixture. Lane 6: treatment with 200 ppm of inducer mixture, without presence of PAA.
Bean plants were grown and treated as in Example 2. Total RNA was extracted and gels were loaded, run, and analyzed following the procedures discussed in Example 2. Probes for HYP were prepared following the procedures set forth in Blee and Anderson, supra.

Compound: CC(=O)OO [peracetic acid]
- PR-1a gene RNA expression ([1]; peracetic acid 3,500 ppm, leaves sprayed, RNA after 24 hours, FIG. 1 lane 1): increased
- PR-1a gene RNA expression ([1]; peracetic acid 10,000 ppm, 24 hours, FIG. 1 lane 2): higher amounts
- mRNA for PAL genes ([2]; peracetic acid 3,500 ppm, 24 hours, FIG. 2 lane 2): increase in mRNA for PAL genes over that of the water control
- mRNA for PAL genes ([2]; peracetic acid 10,000 ppm, compared to 3,500 ppm, FIG. 2 lane 3): substantial increase
- RNA levels from HYP genes ([3]; peracetic acid 3,500 ppm, FIG. 3 lane 2): increase in RNA levels from HYP genes over that of the water control
- RNA levels from HYP genes ([3]; peracetic acid 10,000 ppm, compared to 3,500 ppm, FIG. 3 lane 3): substantially more hybridizing RNA
